# Tests used:
# Format in all cases: cell-based
# [1] = tested on: Candida albicans, ATCC 10231; assay: Time-Kill Procedure (ASTM), rate of kill
# Description: (§1) The rate of kill for these organisms upon exposure to 9-decenoic acid was determined using the American Society for Testing and Materials (ASTM) procedure entitled “Standard Test Method for the Assessment of Microbiocidal Activity of Test Materials Using a Time-Kill Procedure”, October 1998. This procedure incorporates the recommendations described in the “Manual of Clinical Microbiology,”5th ed., edited by A. B. Balows et al., ASM, Washington, and is directed by the Federal Register, June 1994.
# (§2) Stock cultures were transferred into TSB and incubated for 18-24 hours at 37±2° C. A second transfer was made onto TSA plates and were incubated for 18-24 hours at 37±2° C. The plates were removed from incubation and the bacterial growth washed from the agar surface using Butterfield's Phosphate Buffered Dilution Water (PBDW). The bacterial suspension was adjusted to contain approximately 10^8 Colony Forming Units (CFU)/ml with PBDW using spectrophometric methods extant in the laboratory.
# (§3) The concentrated 9-decenoic acid was diluted 1:40 in filter sterilized isopropanol to yield a 2.5% stock solution. Subsequent dilutions to the 9-decenoic acid stock solutions were made with sterile Deionized Water (DI) to achieve concentrations of 0.1%, 0.05%, 0.01%, and 0.001%. The pH was determined for each dilution; pH values ranged from 4.4-4.1. Additionally, the 9-decenoic acid stock solution was adjusted to pH 7 with 1 N NaOH and serially diluted with sterile DI to achieve concentrations of 1.0%, 0.75% and 0.5%.
# (§4) Compliant with the ASTM procedure cited, for each challenge microorganism a 9.9 ml aliquot of the prepared 9-decenoic acid suspension was added to a sterile tube. A 0.1 ml aliquot of the standardized inoculum was added to the 9-decenoic acid solution representing the start of the test exposure. The inoculated 9-decenoic acid solution was immediately mixed thoroughly. The inoculated suspension was held at room temperature for 0.5, 2, 5, 7 and 10 minute exposure times for tests run at ˜pH 4. The pH 7 tests were held at room temperature for 0.5 and 2 minutes.
# (§5) At each exposure sample time, a 1.0 ml aliquot of the inoculated 9-decenoic acid suspension was transferred to 9.0 ml of D/E Neutralizing Broth. Additional ten-fold serial dilutions were made in PBDW and plated in duplicate on TSA. All plates were incubated for 48 hours at 37±2° C. and visually examined for growth. The plates are enumerated, recorded and log kill determined for each time point.
# (§6) The following study controls were conducted: culture purity, neutralizer sterility, initial suspension population, test population, neutralization verification and a negative control using isopropanol. Culture purity was verified by performing a streak plate for isolated colonies on the each culture used. All cultures were determined to be pure based on consistent colony morphology typical for the test organism. The neutralizer sterility was confirmed by no growth in an incubated sample.
# (§7) The population of the initial and test culture were determined by serial dilution, plating and enumerating after incubation. The initial suspension were determined to be ≧10^4 CFU/ml. The test culture population was used for calculation of the log reduction achieved at each time point.
# (§8) Neutralization effectiveness was verified by a filtration test. For each organism, four tubes were prepared with 9 ml D/E Neutralizing Broth and fewer than 100 CFU/ml of the organism. A 1.0 ml aliquot of prepared 9-decenoic acid was added to each tube. Immediately, the entire contents of 2 tubes were filtered through a filtration apparatus and rinsed with sterile diluent. The remaining 2 tubes were held at room temperature for 30 minutes and then the entire contents were filtered using the same procedure. The filters were aseptically transferred to TSA plates and incubated for 48 hours at 37±2° C. and visually examined for growth.
# (§9) This control was inoculated, subcultured and incubated as in the test procedure.
# [2] = tested on: Escherichia coli 0157:H7, ATCC 43895; assay: Time-Kill Procedure (ASTM), rate of kill
# Description: as §1, §2, §3, §4, §5, §6, §7, §8, §9
# [3] = tested on: Aureobasidium pullulans ATCC 12536; assay: Dry film preservative test, growth on PDA agar surface
# Description: The efficacy of 9-decenoic acid and the methyl ester of 9-decenoic acid as a dry film preservative was determined through the incubation of Trichoderma virens ATCC 9645, Cladosporium cladosporiodes ATCC 16022 and Aureobasidium pullulans ATCC 12536 in the presence of varying concentrations of 9-decenoic acid or the methyl ester of 9-decenoic acid on an agar surface.
# Fungal spores were hydrated overnight in 0.1% Tween 80 and then plated on Potato Dextrose Agar (PDA) and incubated at 25-30° C. for 6 days. The spores were washed from the surface with 5 mls of 0.1% Tween 80 and enumerated.
# PDA plates with prepared according to the manufactures instructions through sterilization. The agar was tempered to approximately 50° C. and filter sterilized 9-decenoic acid was added to achieve concentrations of 0.1, 0.5 and 1.0% in the agar. Additionally, one concentration of the methyl ester of 9-decenoic acid (0.5%) was also prepared. The agar was thoroughly mixed and poured into sterile petri plates and allowed to solidify.
# The agar plates were inoculated with the spore solution to achieve 10^2 spores/plate. The plates were incubated at 25-30° C. in Ziploc bags with a wet paper towel to keep the moisture level high. The plates were examined for growth after 4, 7, 16, 24 and 31 days. The percent coverage of growth on the agar surface was recorded at each sample point.
# [4] = 0.01%, pH 4.4, exposure 0.5 minutes
# [5] = 0.01%, pH 4.4, exposure 2 minutes
# [6] = 0.01%, pH 4.4, exposure 5 minutes
# [7] = 0.01%, pH 4.4, exposure 7 minutes
# [8] = 0.01%, pH 4.4, exposure 10 minutes
# [9] = 0.05%, pH 4.1, exposure 0.5 minutes
# [10] = 0.05%, pH 4.1, exposure 2 minutes
# [11] = 0.05%, pH 4.1, exposure 5 minutes
# [12] = 0.05%, pH 4.1, exposure 7 minutes
# [13] = 0.05%, pH 4.1, exposure 10 minutes
# [14] = 0.1%, pH 4.1, exposure 0.5 minutes
# [15] = 0.1%, pH 4.1, exposure 2 minutes
# [16] = 0.1%, pH 4.1, exposure 5 minutes
# [17] = 0.1%, pH 4.1, exposure 7 minutes
# [18] = 0.1%, pH 4.1, exposure 10 minutes
smiles,measurement,setting,value
C=CCCCCCCCC(=O)O [9-decenoic acid],Log reduction of organisms after exposure,[1]; [4],1.0 log
same,Log reduction of organisms after exposure,[1]; [5],2.9 log
same,Log reduction of organisms after exposure,[1]; [6],>6.7 log
same,Log reduction of organisms after exposure,[1]; [7],>6.7 log
same,Log reduction of organisms after exposure,[1]; [8],>6.7 log
same,Log reduction of organisms after exposure,[1]; [9],>6.7 log
same,Log reduction of organisms after exposure,[1]; [10],>6.7 log
same,Log reduction of organisms after exposure,[1]; [11],>6.7 log
same,Log reduction of organisms after exposure,[1]; [12],>6.7 log
same,Log reduction of organisms after exposure,[1]; [13],>6.7 log
same,Log reduction of organisms after exposure,[1]; [14],>6.7 log
same,Log reduction of organisms after exposure,[1]; [15],>6.7 log
same,Log reduction of organisms after exposure,[1]; [16],>6.7 log
same,Log reduction of organisms after exposure,[1]; [17],>6.7 log
same,Log reduction of organisms after exposure,[1]; [18],>6.7 log
same,Log reduction of organisms after exposure,[2]; [4],1.3 log
same,Log reduction of organisms after exposure,[2]; [5],1.6 log
same,Log reduction of organisms after exposure,[2]; [6],2.2 log
same,Log reduction of organisms after exposure,[2]; [7],1.8 log
same,Log reduction of organisms after exposure,[2]; [8],2.7 log
same,Log reduction of organisms after exposure,[2]; [9],>6.2 log
same,Log reduction of organisms after exposure,[2]; [10],>6.2 log
same,Log reduction of organisms after exposure,[2]; [11],>6.2 log
same,Log reduction of organisms after exposure,[2]; [12],>6.2 log
same,Log reduction of organisms after exposure,[2]; [13],>6.2 log
same,Log reduction of organisms after exposure,[2]; [14],>6.2 log
same,Log reduction of organisms after exposure,[2]; [15],>6.2 log
same,Log reduction of organisms after exposure,[2]; [16],>6.2 log
same,Log reduction of organisms after exposure,[2]; [17],>6.2 log
same,Log reduction of organisms after exposure,[2]; [18],>6.2 log
same,Percentage coverage of agar surface,"[3]; 0.1% in PDA agar, 4 days",0%
same,Percentage coverage of agar surface,"[3]; 0.1% in PDA agar, 7 days",0%
same,Percentage coverage of agar surface,"[3]; 0.1% in PDA agar, 16 days",0%
same,Percentage coverage of agar surface,"[3]; 0.1% in PDA agar, 24 days",0%
same,Percentage coverage of agar surface,"[3]; 0.1% in PDA agar, 31 days",0%
same,Percentage coverage of agar surface,"[3]; 0.5% in PDA agar, 4 days",0%
same,Percentage coverage of agar surface,"[3]; 0.5% in PDA agar, 7 days",0%
same,Percentage coverage of agar surface,"[3]; 0.5% in PDA agar, 16 days",0%
same,Percentage coverage of agar surface,"[3]; 0.5% in PDA agar, 24 days",0%
same,Percentage coverage of agar surface,"[3]; 0.5% in PDA agar, 31 days",0%
same,Percentage coverage of agar surface,"[3]; 1.0% in PDA agar, 4 days",0%
same,Percentage coverage of agar surface,"[3]; 1.0% in PDA agar, 7 days",0%
same,Percentage coverage of agar surface,"[3]; 1.0% in PDA agar, 16 days",0%
same,Percentage coverage of agar surface,"[3]; 1.0% in PDA agar, 24 days",0%
same,Percentage coverage of agar surface,"[3]; 1.0% in PDA agar, 31 days",0%
same,effectiveness as dry film preservative,[3]; at 0.1% for up to 31 days,effective
